In publication PMC10004634 (PLOS ONE, 2023):
Where two headings read alike, the source gives them in different places.

Columns and labels:
Assay in all cases: biochemical
Parameters in all cases: KINOMEscan scanMAX competition binding, DNA-tagged kinases, qPCR read-out, percent control at 300 nM
[1] = target: T1, BRSK2 (Homo sapiens, UniProt Q8IWQ3)
T1 sequence (Q8IWQ3 1-736): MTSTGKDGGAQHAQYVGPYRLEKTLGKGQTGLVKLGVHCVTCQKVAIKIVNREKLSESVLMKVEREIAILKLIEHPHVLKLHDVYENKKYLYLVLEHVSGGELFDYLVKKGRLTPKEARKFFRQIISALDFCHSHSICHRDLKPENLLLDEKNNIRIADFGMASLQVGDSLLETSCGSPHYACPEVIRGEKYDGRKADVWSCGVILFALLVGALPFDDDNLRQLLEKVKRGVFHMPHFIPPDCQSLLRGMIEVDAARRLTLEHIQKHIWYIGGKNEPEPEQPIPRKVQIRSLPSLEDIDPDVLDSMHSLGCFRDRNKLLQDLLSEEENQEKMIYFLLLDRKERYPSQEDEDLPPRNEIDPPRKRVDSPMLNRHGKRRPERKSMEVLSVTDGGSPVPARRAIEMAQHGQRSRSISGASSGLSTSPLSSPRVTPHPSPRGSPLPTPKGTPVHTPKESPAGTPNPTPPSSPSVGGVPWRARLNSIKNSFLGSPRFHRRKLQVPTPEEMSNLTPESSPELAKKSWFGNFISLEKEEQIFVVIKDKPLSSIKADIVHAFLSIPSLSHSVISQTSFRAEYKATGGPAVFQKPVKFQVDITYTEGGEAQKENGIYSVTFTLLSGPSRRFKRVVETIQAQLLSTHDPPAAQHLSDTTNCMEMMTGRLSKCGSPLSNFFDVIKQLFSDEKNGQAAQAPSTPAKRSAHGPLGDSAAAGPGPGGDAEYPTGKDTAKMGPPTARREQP

[2] = target: T2, EPHB6 (Homo sapiens, UniProt O15197)
T2 sequence (O15197 1-1021): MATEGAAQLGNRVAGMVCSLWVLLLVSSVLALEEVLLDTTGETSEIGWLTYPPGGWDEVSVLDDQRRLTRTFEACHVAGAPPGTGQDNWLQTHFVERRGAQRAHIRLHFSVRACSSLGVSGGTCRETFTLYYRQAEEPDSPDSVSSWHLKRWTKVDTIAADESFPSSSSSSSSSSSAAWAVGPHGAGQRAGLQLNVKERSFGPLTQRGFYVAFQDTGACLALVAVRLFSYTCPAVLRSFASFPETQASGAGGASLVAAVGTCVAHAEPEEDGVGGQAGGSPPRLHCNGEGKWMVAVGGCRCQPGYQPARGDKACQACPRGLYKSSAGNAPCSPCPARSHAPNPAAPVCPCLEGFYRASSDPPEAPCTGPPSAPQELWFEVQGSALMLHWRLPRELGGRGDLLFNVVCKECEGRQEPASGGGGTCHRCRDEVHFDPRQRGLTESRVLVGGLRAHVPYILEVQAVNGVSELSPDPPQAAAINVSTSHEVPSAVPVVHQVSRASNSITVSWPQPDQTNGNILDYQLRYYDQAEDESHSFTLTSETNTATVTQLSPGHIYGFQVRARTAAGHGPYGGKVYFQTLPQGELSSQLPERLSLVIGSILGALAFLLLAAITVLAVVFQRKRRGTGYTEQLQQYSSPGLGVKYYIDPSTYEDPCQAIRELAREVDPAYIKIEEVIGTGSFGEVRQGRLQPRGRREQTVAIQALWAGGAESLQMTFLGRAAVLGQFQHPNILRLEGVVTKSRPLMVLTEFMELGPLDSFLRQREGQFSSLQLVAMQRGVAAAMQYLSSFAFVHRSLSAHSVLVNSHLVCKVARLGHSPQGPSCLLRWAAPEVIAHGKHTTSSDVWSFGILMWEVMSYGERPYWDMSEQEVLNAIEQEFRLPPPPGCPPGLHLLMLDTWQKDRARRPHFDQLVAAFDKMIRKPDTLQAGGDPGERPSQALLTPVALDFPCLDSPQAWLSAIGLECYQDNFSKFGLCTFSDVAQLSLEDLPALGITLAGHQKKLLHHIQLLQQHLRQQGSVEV

[3] = target: FLT4 (Homo sapiens, UniProt P35916)
[4] = target: NEK7 (Homo sapiens, UniProt Q8TDX7)
[5] = read-out: Percent control / Acalabrutinib
[6] = read-out: Percent control / Ibrutinib
[7] = read-out: Percent control / Tirabrutinib
[8] = read-out: Percent control / Zanubrutinib

Chain of NEK7 (Q8TDX7 whole entry): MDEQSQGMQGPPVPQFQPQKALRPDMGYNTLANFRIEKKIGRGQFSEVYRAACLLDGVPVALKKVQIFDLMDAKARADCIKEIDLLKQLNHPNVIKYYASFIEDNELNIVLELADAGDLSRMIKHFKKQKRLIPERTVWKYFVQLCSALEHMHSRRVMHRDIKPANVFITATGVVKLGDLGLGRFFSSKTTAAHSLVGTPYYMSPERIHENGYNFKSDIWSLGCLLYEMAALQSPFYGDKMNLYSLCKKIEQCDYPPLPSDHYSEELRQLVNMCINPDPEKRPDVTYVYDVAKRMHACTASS
Chain of FLT4 (P35916 whole entry): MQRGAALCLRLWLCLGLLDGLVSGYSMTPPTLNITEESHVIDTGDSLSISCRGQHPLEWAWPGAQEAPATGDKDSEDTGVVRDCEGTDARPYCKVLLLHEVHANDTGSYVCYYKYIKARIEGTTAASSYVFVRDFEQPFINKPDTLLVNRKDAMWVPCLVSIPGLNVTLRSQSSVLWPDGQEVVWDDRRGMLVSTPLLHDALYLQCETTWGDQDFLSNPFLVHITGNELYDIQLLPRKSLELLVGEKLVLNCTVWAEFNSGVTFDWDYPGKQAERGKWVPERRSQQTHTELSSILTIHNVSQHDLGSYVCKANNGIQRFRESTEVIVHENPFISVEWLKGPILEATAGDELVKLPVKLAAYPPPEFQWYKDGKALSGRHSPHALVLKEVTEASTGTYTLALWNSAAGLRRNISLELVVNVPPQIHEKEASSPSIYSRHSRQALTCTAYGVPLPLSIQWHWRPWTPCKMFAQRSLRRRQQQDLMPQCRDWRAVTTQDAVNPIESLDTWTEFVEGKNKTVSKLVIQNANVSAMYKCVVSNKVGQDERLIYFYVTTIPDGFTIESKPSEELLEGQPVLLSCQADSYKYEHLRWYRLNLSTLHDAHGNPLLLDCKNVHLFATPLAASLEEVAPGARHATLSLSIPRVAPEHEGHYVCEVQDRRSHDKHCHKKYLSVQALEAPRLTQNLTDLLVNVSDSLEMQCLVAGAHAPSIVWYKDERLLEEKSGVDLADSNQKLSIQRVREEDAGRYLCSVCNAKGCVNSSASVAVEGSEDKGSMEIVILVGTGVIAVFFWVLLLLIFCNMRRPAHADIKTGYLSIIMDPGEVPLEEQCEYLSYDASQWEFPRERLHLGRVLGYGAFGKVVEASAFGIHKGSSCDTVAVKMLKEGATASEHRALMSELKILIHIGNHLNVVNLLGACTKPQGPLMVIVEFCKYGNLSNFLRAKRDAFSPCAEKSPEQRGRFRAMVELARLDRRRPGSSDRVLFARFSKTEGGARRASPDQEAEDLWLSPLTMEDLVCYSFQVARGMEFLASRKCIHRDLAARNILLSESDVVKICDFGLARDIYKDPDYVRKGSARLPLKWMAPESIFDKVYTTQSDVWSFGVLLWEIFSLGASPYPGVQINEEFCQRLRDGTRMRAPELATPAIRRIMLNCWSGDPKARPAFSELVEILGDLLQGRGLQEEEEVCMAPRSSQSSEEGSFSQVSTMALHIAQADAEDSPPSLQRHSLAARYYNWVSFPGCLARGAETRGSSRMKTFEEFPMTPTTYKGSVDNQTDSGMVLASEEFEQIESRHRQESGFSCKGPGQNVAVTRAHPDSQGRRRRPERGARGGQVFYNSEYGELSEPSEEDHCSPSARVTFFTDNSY

CC#CC(=O)N1CCC[C@H]1c1nc(-c2ccc(C(=O)Nc3ccccn3)cc2)c2c(N)nccn12 [Acalabrutinib]
remaining binding at 0.3 µM [1, 5]: 94%
remaining binding at 0.3 µM [2, 5]: 85%
remaining binding at 0.3 µM [3, 5]: 96%
remaining binding at 0.3 µM [4, 5]: 76%

C=CC(=O)N1CCC[C@@H](n2nc(-c3ccc(Oc4ccccc4)cc3)c3c(N)ncnc32)C1 [Ibrutinib]
remaining binding at 0.3 µM [1, 6]: 82%
remaining binding at 0.3 µM [2, 6]: 46%
remaining binding at 0.3 µM [3, 6]: 57%
remaining binding at 0.3 µM [4, 6]: 97%

CC#CC(=O)N1CC[C@@H](n2c(=O)n(-c3ccc(Oc4ccccc4)cc3)c3c(N)ncnc32)C1 [Tirabrutinib]
remaining binding at 0.3 µM [2, 7]: 70%
remaining binding at 0.3 µM [3, 7]: 99%

C=CC(=O)N1CCC([C@@H]2CCNc3c(C(N)=O)c(-c4ccc(Oc5ccccc5)cc4)nn32)CC1 [Zanubrutinib]
remaining binding at 0.3 µM [1, 8]: 81%
remaining binding at 0.3 µM [2, 8]: 96%
remaining binding at 0.3 µM [3, 8]: 100%
remaining binding at 0.3 µM [4, 8]: 91%
